According to paper PMC12752606, “METTL10‐Mediated PIAS3 Methylation Links Purine Metabolism to Gastric Cancer Progression” (Advanced Science, 2025):

Experiments:
[1] = tested on: Flag-METTL10 protein in HEK293T cells; assay: Cycloheximide chase assay of Flag-METTL10 stability; format: cell-based; conditions: 20 µM
SETD1A = SETD1A (Homo sapiens, UniProt O15047); assay: Off-target methyltransferase profiling (MTase-Glo); format: biochemical
Description: (§1) To evaluate the off‐target effects of LZQ‐02‐023‐01 on methyltransferase activity, a panel of enzymes was assessed using the MTase‐Glo Methyltransferase Assay (Promega), following the manufacturer's instructions. The assay was performed by ICE Bioscience Inc. Briefly, LZQ‐02‐023‐01 was serially diluted 4‐fold in DMSO to generate a 10‐point concentration gradient, and the resulting solutions were dispensed into 384‐well white assay plates using an Echo acoustic liquid handler (Labcyte). Plates were centrifuged at 1000 rpm for 1 min to ensure even compound distribution. Following a 10‐min preincubation at 25 °C, 2 µL of a substrate solution containing S‐adenosylmethionine (SAM) and the specific methyltransferase substrate (Table S7, Supporting Information) was added to each well. After a brief centrifugation, plates were incubated at 25 °C for 180 min to allow the enzymatic methylation reaction to proceed. Subsequently, 1 µL of MTase‐Glo reagent was added, followed by centrifugation and incubation at 25 °C for 45 min. Then, 5 µL of MTase‐Glo detection solution was introduced into each well, and the plates were incubated for an additional 45 min at 25 °C after centrifugation.
(§2) Luminescence signals were directly proportional to methyltransferase activity, were recorded using a microplate reader (BMG LABTECH). Percent inhibition was calculated by normalizing luminescence intensities of compound‐treated wells to DMSO‐treated controls, and IC50 values were calculated using GraphPad Prism 8 software.

PRMT8 = PRMT8 (Homo sapiens, UniProt Q9NR22); assay: Off-target methyltransferase profiling (MTase-Glo); format: biochemical
Description: as §1, §2

NSD2 = NSD2 (Homo sapiens, UniProt O96028); assay: Off-target methyltransferase profiling (MTase-Glo); format: biochemical
NSD2, sequence (O96028 whole entry, species assumed): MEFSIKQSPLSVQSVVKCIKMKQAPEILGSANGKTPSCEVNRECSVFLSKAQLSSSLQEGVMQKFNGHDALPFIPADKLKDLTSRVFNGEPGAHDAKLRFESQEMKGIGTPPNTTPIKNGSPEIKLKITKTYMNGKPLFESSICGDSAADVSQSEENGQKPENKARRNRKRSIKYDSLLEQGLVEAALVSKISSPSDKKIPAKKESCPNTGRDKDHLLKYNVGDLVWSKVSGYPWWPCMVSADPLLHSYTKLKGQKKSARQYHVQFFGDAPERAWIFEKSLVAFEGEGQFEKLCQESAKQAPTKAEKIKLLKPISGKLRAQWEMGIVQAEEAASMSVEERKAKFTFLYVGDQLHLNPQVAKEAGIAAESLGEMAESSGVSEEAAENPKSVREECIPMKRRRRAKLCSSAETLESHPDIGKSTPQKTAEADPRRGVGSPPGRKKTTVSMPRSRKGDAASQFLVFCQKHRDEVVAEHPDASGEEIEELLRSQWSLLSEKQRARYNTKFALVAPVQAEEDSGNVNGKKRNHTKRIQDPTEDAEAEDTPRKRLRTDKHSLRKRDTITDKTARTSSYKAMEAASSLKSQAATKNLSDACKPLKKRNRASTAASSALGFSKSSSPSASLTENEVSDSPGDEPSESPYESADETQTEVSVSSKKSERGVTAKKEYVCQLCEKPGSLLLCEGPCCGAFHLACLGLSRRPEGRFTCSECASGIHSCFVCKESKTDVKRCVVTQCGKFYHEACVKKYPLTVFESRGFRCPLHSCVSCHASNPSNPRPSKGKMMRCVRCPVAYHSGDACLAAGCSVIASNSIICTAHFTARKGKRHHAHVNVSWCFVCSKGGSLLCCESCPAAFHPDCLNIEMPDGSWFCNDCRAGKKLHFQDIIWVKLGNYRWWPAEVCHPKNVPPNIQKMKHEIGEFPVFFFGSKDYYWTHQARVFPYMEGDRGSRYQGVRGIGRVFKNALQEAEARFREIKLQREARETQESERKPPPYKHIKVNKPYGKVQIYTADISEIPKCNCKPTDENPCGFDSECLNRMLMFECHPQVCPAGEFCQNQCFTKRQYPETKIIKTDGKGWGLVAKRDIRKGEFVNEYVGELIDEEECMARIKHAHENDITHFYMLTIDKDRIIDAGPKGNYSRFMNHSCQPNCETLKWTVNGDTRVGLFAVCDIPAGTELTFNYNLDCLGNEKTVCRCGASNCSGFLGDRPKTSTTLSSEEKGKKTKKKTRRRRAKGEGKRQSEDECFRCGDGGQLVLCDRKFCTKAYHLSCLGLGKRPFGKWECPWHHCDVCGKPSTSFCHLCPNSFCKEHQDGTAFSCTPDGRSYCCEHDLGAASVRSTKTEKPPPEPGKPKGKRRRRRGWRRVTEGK
Description: as §1, §2

PRMT1 = PRMT1 (Homo sapiens, UniProt Q99873); assay: Off-target methyltransferase profiling (MTase-Glo); format: biochemical
Description: as §1, §2

DNMT1 = DNMT1 (Homo sapiens, UniProt P26358); assay: Off-target methyltransferase profiling (MTase-Glo); format: biochemical
Description: as §1, §2

EZH2 [A738T] = EZH2 [A738T] (Homo sapiens, UniProt Q15910, A733T); assay: Off-target methyltransferase profiling (MTase-Glo); format: biochemical
Description: as §1, §2

SETD1B = SETD1B (Homo sapiens, UniProt Q9UPS6); assay: Off-target methyltransferase profiling (MTase-Glo); format: biochemical
Description: as §1, §2

SUV420H1 = SUV420H1 (Homo sapiens, UniProt Q4FZB7); assay: Off-target methyltransferase profiling (MTase-Glo); format: biochemical
Description: as §1, §2

MLL3 = MLL3 (Homo sapiens, UniProt Q8NEZ4); assay: Off-target methyltransferase profiling (MTase-Glo); format: biochemical
Description: as §1, §2

METTL3/14 = METTL3/14 (Homo sapiens, UniProt Q86U44); assay: Off-target methyltransferase profiling (MTase-Glo); format: biochemical
Description: as §1, §2

EZH2 [Y641H] = EZH2 [Y641H] (Homo sapiens, UniProt Q15910, Y641H); assay: Off-target methyltransferase profiling (MTase-Glo); format: biochemical
Description: as §1, §2

SMYD2 = SMYD2 (Homo sapiens, UniProt Q9NRG4); assay: Off-target methyltransferase profiling (MTase-Glo); format: biochemical
Description: as §1, §2

NSD1 = NSD1 (Homo sapiens, UniProt Q96L73); assay: Off-target methyltransferase profiling (MTase-Glo); format: biochemical
Description: as §1, §2

GLP = GLP (Homo sapiens, UniProt Q9H9B1); assay: Off-target methyltransferase profiling (MTase-Glo); format: biochemical
Description: as §1, §2

EZH2 = EZH2 (Homo sapiens, UniProt Q15910); assay: Off-target methyltransferase profiling (MTase-Glo); format: biochemical
Description: as §1, §2

PRMT4 = PRMT4 (Homo sapiens, UniProt Q86X55); assay: Off-target methyltransferase profiling (MTase-Glo); format: biochemical
Description: as §1, §2

SUV39H1 = SUV39H1 (Homo sapiens, UniProt O43463); assay: Off-target methyltransferase profiling (MTase-Glo); format: biochemical
Description: as §1, §2

NSD3 = NSD3 (Homo sapiens, UniProt Q9BZ95); assay: Off-target methyltransferase profiling (MTase-Glo); format: biochemical
Description: as §1, §2

G9A = G9A (Homo sapiens, UniProt Q96KQ7); assay: Off-target methyltransferase profiling (MTase-Glo); format: biochemical
Description: as §1, §2

EZH2 [Y641F] = EZH2 [Y641F] (Homo sapiens, UniProt Q15910, Y641F); assay: Off-target methyltransferase profiling (MTase-Glo); format: biochemical
EZH2 [Y641F], sequence (Q15910 whole entry Y641F): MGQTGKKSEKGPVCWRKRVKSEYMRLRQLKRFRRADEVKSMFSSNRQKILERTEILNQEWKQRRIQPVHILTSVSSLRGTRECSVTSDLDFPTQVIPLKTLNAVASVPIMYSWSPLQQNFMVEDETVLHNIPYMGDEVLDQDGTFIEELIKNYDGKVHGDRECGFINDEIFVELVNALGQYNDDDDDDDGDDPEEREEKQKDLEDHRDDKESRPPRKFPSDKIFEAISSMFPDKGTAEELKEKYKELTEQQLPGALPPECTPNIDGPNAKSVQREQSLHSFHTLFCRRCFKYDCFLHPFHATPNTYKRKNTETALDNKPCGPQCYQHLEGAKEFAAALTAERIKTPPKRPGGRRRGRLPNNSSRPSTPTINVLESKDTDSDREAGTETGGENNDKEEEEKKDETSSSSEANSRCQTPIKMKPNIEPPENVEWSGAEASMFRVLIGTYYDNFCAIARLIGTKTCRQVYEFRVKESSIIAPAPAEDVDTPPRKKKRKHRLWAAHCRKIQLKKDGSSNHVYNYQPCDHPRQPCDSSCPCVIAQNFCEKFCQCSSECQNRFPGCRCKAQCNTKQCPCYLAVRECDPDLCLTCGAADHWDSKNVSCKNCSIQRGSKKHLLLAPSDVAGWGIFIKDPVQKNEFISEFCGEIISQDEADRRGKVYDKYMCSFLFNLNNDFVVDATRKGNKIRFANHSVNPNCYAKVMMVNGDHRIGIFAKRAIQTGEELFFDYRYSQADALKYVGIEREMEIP
EZH2 [Y641F], sequence (O75530 whole entry partner): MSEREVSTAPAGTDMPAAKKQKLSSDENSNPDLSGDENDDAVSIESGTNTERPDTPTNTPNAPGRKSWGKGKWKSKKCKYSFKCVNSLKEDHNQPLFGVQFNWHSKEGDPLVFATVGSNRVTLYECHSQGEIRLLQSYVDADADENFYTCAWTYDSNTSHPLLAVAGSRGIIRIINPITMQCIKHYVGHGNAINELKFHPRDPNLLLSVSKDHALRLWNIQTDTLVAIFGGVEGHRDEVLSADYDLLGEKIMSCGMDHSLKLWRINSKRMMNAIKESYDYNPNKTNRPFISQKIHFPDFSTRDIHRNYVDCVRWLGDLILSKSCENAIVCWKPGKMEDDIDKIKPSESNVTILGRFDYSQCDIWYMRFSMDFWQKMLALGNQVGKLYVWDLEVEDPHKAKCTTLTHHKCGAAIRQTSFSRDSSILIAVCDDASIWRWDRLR
EZH2 [Y641F], sequence (Q15022 whole entry partner): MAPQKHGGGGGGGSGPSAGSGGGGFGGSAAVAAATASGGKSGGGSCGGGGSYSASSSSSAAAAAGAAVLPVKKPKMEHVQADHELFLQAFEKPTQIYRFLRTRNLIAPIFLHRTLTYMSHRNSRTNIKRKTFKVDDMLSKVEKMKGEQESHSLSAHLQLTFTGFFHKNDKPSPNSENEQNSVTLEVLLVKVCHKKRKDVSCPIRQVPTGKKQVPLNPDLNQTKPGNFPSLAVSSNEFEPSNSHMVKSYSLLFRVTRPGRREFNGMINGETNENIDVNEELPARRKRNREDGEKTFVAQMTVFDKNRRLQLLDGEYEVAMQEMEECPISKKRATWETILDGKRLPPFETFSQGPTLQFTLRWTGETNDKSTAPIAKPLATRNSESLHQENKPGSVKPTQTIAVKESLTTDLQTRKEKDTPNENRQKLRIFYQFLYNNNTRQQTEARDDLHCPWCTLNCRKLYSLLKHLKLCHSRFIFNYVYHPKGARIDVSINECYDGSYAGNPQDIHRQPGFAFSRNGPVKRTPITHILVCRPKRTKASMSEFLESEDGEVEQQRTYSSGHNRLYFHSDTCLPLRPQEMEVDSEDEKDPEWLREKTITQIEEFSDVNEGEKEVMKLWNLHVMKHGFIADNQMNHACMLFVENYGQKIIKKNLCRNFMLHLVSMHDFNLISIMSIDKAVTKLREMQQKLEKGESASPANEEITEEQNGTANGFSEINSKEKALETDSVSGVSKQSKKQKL
EZH2 [Y641F], sequence (Q09028 whole entry partner): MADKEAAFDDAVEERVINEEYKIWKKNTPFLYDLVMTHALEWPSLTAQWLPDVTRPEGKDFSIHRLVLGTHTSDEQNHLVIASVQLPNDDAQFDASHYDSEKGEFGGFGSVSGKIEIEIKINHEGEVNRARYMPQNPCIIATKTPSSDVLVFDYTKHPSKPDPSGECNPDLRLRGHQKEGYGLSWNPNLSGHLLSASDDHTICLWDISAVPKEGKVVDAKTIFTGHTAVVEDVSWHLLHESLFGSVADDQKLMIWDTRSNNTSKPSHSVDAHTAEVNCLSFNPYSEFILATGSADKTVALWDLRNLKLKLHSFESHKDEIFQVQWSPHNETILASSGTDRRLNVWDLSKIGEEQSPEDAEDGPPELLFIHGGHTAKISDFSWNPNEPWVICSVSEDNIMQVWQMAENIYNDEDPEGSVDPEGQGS
Description: as §1, §2

SETD2 = SETD2 (Homo sapiens, UniProt Q9BYW2); assay: Off-target methyltransferase profiling (MTase-Glo); format: biochemical
Description: as §1, §2

PRMT6 = PRMT6 (Homo sapiens, UniProt Q96LA8); assay: Off-target methyltransferase profiling (MTase-Glo); format: biochemical
Description: as §1, §2

DOT1L = DOT1L (Homo sapiens, UniProt Q8TEK3); assay: Off-target methyltransferase profiling (MTase-Glo); format: biochemical
Description: as §1, §2

PRMT5 = PRMT5 (Homo sapiens, UniProt O14744); assay: Off-target methyltransferase profiling (MTase-Glo); format: biochemical
PRMT5, sequence (O14744 whole entry, species assumed): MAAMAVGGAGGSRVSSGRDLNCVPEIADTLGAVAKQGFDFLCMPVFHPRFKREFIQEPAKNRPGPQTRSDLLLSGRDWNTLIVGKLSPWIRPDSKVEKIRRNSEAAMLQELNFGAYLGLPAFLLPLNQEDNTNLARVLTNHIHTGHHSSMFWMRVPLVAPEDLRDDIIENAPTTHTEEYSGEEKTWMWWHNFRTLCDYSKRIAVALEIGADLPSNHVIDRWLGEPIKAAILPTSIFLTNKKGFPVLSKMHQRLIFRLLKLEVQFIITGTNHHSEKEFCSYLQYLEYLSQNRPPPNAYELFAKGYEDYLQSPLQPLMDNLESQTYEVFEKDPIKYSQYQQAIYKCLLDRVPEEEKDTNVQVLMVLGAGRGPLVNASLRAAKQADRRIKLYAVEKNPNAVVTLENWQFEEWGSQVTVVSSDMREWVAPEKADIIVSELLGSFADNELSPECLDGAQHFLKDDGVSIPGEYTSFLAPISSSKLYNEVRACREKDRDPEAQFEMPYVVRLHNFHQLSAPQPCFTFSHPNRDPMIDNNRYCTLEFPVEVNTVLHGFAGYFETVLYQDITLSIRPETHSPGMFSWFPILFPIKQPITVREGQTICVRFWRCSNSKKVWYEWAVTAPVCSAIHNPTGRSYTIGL
PRMT5, sequence (Q9BQA1 whole entry partner, species assumed): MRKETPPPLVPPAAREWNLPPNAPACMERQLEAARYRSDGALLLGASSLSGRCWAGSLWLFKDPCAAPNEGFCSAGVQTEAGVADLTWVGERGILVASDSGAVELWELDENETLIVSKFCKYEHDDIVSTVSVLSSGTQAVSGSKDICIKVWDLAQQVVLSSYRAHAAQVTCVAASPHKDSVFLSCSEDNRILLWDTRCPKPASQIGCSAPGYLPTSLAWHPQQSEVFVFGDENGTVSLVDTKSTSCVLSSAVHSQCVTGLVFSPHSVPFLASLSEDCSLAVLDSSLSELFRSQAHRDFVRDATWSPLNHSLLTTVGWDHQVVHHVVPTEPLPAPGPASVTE
Description: as §1, §2

For `Cc1ccc(Nc2ncc3c(n2)N(C)C(=O)N(c2cccc(N)c2)C3)cn1` [LZQ-02-023-01, Three‐(3‐aminophenyl)‐1‐methyl‐7‐((6‐methylpyridin‐3‐yl)amino)‐3,4‐dihydropyrimido [4,5‐d] pyrimidin‐2 (1H)‐one], the “Half-life of METTL10 protein” value [1] was “remained unchanged”, the IC50 (SETD1A) was 18.8 µM and the IC50 (PRMT8) was 26.9 µM. The IC50 (NSD2) was 9.53 µM, the IC50 (PRMT1) was 19.7 µM and the IC50 (DNMT1) was 23.8 µM. It also gave an IC50 (EZH2 [A738T]) of 7.47 µM, an IC50 (SETD1B) of 8.97 µM and an IC50 (SUV420H1) of 13.3 µM. For the same compound, the IC50 (MLL3) was 9.47 µM, the IC50 (METTL3/14) was 16.8 µM and the IC50 (EZH2 [Y641H]) was 3.46 µM. The IC50 (SMYD2) was 9.07 µM, the IC50 (NSD1) was 13.3 µM and the IC50 (GLP) was 23.9 µM. It also gave an IC50 (EZH2) of 14.7 µM, an IC50 (PRMT4) of 19.2 µM and an IC50 (SUV39H1) of 18.6 µM. The IC50 (NSD3) was 7.36 µM, the IC50 (G9A) was 39.1 µM and the IC50 (EZH2 [Y641F]) was 2940 nM. It also gave an IC50 (SETD2) of 18.6 µM, an IC50 (PRMT6) of 11 µM and an IC50 (DOT1L) of 13.1 µM. The IC50 (PRMT5) was 13 µM.
